Source: US20030032581A1, “Pharmaceuticals for treating obesity” (priority 1999, published 2003)
Marks after values point to notes of the source that are not given here.

How the values were obtained:
fat-fed C57BL/6J mice = assay: Fat-fed C57BL/6J mice, obesity and metabolic parameters; assay type: in vivo; settings: HF diet + 50 mg/kg/day
Protocol: At the end of that time the animals had gained 16g, 22 g and 20.5 g, respectively (FIG. 3). […] Analysis of whole body triglyceride content and protein content were performed as described in Moller et al (Endocrinology 137:2397-2405, 1996). […] Thus, treatment with the PPARγ antagonist caused relative decreases in body adiposity and increases in lean body mass in fat fed mice. The plasma levels of glucose, triglycerides and free fatty acid levels were all increased in the HF group relative to the LF group (see Table below).

ob/ob mice = assay: ob/ob mice, plasma insulin; assay type: in vivo; settings: once daily dosing
Source text: The PPAR-gamma antagonists/partial agonists are therefore effective in treating the obesity and other symptoms that generally occur in non-insulin dependent diabetes, such as elevated levels of glucose, triglycerides, and insulin in the plasma.

3T3-L1 cells = assay: 3T3-L1 preadipocyte differentiation (aP2 expression); assay type: cell-based; settings: Mus musculus, 3T3-L1, 120 h; 100 nM rosiglitazone, 5 days; read-out: IC50, block of rosiglitazone stimulated aP2 expression
Protocol: 3T3-L1 cells were obtained from American Type Culture Collection. Passage numbers 3 to 9 were used in all the studies. Monolayer fibroblasts were maintained in medium A (Dulbecco's modified Eagle's medium with 10% fetal calf serum, 100 units/ml penicillin, and 100 μg/ml streptomycin) at 37° C. in 5% CO2. […] Total RNA was prepared using Ultraspec™ RNA isolation system (Biotecx, Houston, Tex.). RNA concentration was quantitated by absorbance at 260 nm. Equal amount of RNA samples were denatured in formamide/formaldehyde and applied to Hybond™-N membranes (Amersham) using a slot blot apparatus (BioRad). Prehybridization was performed at 42° C. for 1-3 h in 40-50% formamide in a solution containing 25 mM sodium phosphate, pH 7.4, 0.9 M sodium chloride, 50 mM sodium citrate, 0.1% each of gelatin, ficoll, and polyvinylpyrollidone, 0.5% SDS, and 100 μg/ml denatured salmon sperm DNA. Hybridization was carried out at the same temperature for 20h in the same solution with ^32P-labeled aP2 cDNA probe (2×10^6 cpm/ml). After washing the membranes under appropriately stringent conditions, the hybridization signals were analyzed with a Phosphorlmager (Molecular Dynamics).

With `O=C(O)c1c(Sc2ccccc2)c2cc(Cl)ccc2n1Cc1ccc(Cl)cc1` [Compound I, 1-(p-chlorobenzyl)-5-chloro-3-thiophenylindole-2-carboxylic acid] the body weight gained (fat-fed C57BL/6J mice; 72 days) was 20.5 g, the “Plasma free fatty acids” value (fat-fed C57BL/6J mice; mean +/- SE of 10 mice) was 0.536 +/− 0.02* mM and the Plasma glucose (fat-fed C57BL/6J mice; mean +/- SE of 10 mice) was 145.6 +/− 4.1* mg/dl. For the same compound, the Plasma triglycerides (fat-fed C57BL/6J mice; mean +/- SE of 10 mice) was 71.4 +/− 4.1** mg/dl, the Serum insulin (fat-fed C57BL/6J mice; mean +/- SE of 10 mice) was 1.35 ± 0.21 ng/mL and the “reduction in elevated levels of mean plasma insulin” value (ob/ob mice) was 30-50%. It also gave an IC50 (3T3-L1 cells) of about 300 nM.
